According to patent US8609358B2, “Methods, peptides and biosensors useful for detecting a broad spectrum of bacteria” (priority 2003, dated 2013):
Primed or numbered codes have the meaning given here. Dabcyl′ = FRET label; Edans = FRET label

Tests used:
[1] = tested on: proteases of Streptococcus; assay: Surface sensor sensitivity: cleavage of CPI2 by bacterial proteases; assay type: biochemical, Streptococcus pyogenes
Method: (§1) CPI2 was determined to be a good candidate for a broad-spectrum sensor. Surface sensors were constructed as follows:
(§2) Membrane used: Pall SB6407
(§3) The sensors were air dried and stored overnight at −20° C. Sensors were loaded into sterile 96 well plates for the sensitivity study.
(§4) The bacteria E. faecalis, P. aeruginosa, S. aureus, S. pyogenes, and S. marcescens were grown in an incubator overnight at 37° C. in 5 ml BHI (Brain Heart Infusion) media and diluted to the concentrations given for each experiment. Each strain of bacteria was diluted with PBS (pH 7.4) to obtain an optical density (OD) of approximately 0.52 at 550 nm. This OD was assumed to represent approximately 10^8 cells/ml of bacteria. The 10^8 cells/ml stock of each bacteria was diluted with PBS to obtain a concentration series of: 10^7, 10^6, 10^5 and 10^4 cells/ml. Sensitivity testing consisted of placing 100 μL of each of the concentration series of 10^7, 10^6, 10^5 and 10^4 cells/ml (cells) onto a row of sensors. Controls for each sensitivity testing consisted of sensors exposed to 100 μL PBS.
(§5) Data was taken at 4, 24 and 48 hours for each plate. […] Images were analyzed using NIH ImageJ, a public domain image processing and analysis program developed at the National Institutes of Health (NIH). […]

[2] = tested on: proteases of Staphylococcus; assay: as above; assay type: biochemical, Staphylococcus aureus
Method: as §1, §2, §3, §4, §5

[3] = tested on: E. coli cells or supernatant; assay: Cleavage of CPI2 incubated with E. coli; assay type: biochemical, Escherichia coli
Method: (§6) A culture of each of the following bacterial species was grown overnight (O/N) in Brain Heart Infusion (BHI) broth at 37° C. with vigorous shaking (˜200 rpm), using methods that are standard in the art: Staphylococcus aureus; Streptococcus pyogenes; Serratia marcescens; Escherichia coli; Pseudomonas aeruginosa (PA14); Pseudomonas aeruginosa (GSU3); and Enterococcus faecalis. After overnight growth, a 1 ml sample of each culture was obtained, and the cells were removed from the culture supernatant by centrifugation at 12,000×g for 5 minutes. The remaining culture supernatants were stored on ice until required (less than one hour). The bacteria were assayed for the presence or absence of enzymes as described below.
The bacteria were grown in an incubator overnight at 37° C. in 5 mL BHI (Brain Heart Infusion) media. Each of the resulting cultures was split into two samples. One was used as a culture, and the other was spun down by centrifugation and the supernatant was collected. The assays were run in 20 mM tris buffer (pH 7.2) with 150 mM NaCl added […]. The cleavage reaction was carried out with 7 μL of culture or supernatant and 3 μL of peptide substrate (5 mg/mL in water/DMSO) in 100 μL total volume at 37° C. The reaction was followed on a fluorimetric plate reader using an excitation wavelength of 355 nm and an emission wavelength of 485 nm.

[4] = tested on: proteases of Enterococcus; assay: Surface sensor sensitivity: cleavage of CPI2 by bacterial proteases; assay type: biochemical, Enterococcus faecalis
Method: as §1, §2, §3, §4, §5

[5] = tested on: proteases of Pseudomonas; assay: as above; assay type: biochemical, Pseudomonas aeruginosa
Method: as §1, §2, §3, §4, §5

[6] = tested on: bacterial culture (media and cells); assay: Broad spectrum FRET assay, overnight bacterial culture; assay type: biochemical; conditions: pH 7.2, 150 mM NaCl, 37° C.
Method: as §6
Two peptide substrates, CPI1 and CPI2, were designed to encompass all of the cleavage sites of the RSL sequence, as shown in FIGS. 1A and 1B. The peptide substrates were labeled with the fluorescent probe edans (5-((2-aminoethyl)amino)naphthalene-1-sulfonic acid) and the quencher dye molecule dabcyl ((4-(4-(dimethylamino)phenyl)azo)benzoic acid).
The bacteria were grown in an incubator overnight at 37° C. in 5 mL BHI (Brain Heart Infusion) media. Each of the resulting cultures was split into two samples. […] The reaction was followed on a fluorimetric plate reader using an excitation wavelength of 355 nm and an emission wavelength of 485 nm. […]

[7] = tested on: five different clinical strains of E. faecalis; assay: Inter-strain operability; assay type: biochemical, Enterococcus faecalis; conditions: all five clinical strains
From the text: A CIP2 fluorescent resonance entergy transfer (FRET) peptide was exposed to five different clinical strains of E. faecalis (obtained from the University of Colorado). […] FIG. 12 illustrates a graph of the relative fluorescence measured after exposure to the various strains.

[8] = Cleavage of CPI2 in uninfected wound fluid; assay type: biochemical; conditions: in the presence of uninfected wound fluid
[9] = tested on: proteases of Serratia; assay: Surface sensor sensitivity: cleavage of CPI2 by bacterial proteases; assay type: biochemical, Serratia marcescens; conditions: for sensor signal: end of sensor study (40 hours)
Method: as §1, §2, §3, §4
Data was taken at 4, 24 and 48 hours for each plate. Data consisted of color (fluorescent) images of each plate taken under relatively uniform conditions (lighting, exposure time, etc.) using a Kodak DC290 digital camera. Images were analyzed using NIH ImageJ, a public domain image processing and analysis program developed at the National Institutes of Health (NIH). Analysis consisted of measuring the intensity value within each well (i.e., the sum of the intensity values of all the pixels in the selection divided by the number of pixels). Pixels range in value from 0 to 1. […] All sensor sensitivity data is plotted on an index scale from 0 to 1 versus time and the trends accurately reflect what is seen in the images.

[10] = 10^5 bacteria/ml, end of sensor study (40 hours)

| Substance | sensor signal [1, 10] | cleavage of peptide substrate ([1]; proteases of Streptococcus) | sensor signal [2, 10] | cleavage of peptide substrate ([2]; proteases of Staphylococcus) | sensor signal ([3]; 10^5 bacteria/ml) | cleavage of peptide substrate ([3]; incubated with E. coli cells or supernatant) | sensor signal [4, 10] | cleavage of peptide substrate ([4]; proteases of Enterococcus) | sensor signal [5, 10] | cleavage of peptide substrate ([5]; proteases of Pseudomonas) | protease activity (relative fluorescence) [6] | reaction with strains (relative fluorescence) [7] | cleavage of peptide substrate [8] | sensor signal ([9]; 10^4 bacteria/ml) | sensor signal ([9]; 10^5 bacteria/ml) | cleavage of peptide substrate ([9]; proteases of Serratia) |
| --- | --- | --- | --- | --- | --- | --- | --- | --- | --- | --- | --- | --- | --- | --- | --- | --- |
| Edans-EGAMFLEAIPMSIPK-Dabcyl (Edans-EGAMFLEAIPMSIPK-{Dabcyl′}) [CPI2] | strong signal | efficiently cleaved | strong signal | efficiently cleaved | not | not cleaved | strong signal | efficiently cleaved | strong signal | efficiently cleaved | protease activity was observed for a number of the bacteria | reacted strongly | not cleaved | not observed to give a signal that can be significantly measured above the background | strong signal | efficiently cleaved |
| Edans-EAAGAMFLEAIPK-Dabcyl (Edans-EAAGAMFLEAIPK-{Dabcyl′}) [CPI1] | – | – | – | – | – | – | – | – | – | – | protease activity was observed for a number of the bacteria | – | – | – | – | – |
